# Assay results taken from patent US5624894A, “Brain-enhanced delivery of neuroactive peptides by sequential metabolism” (University of Florida, priority 1995, dated 1997).
# Several values for one entry are separate records, joined by “and”; a condition that tells them apart may be missing. Equal entries are not always repeated. Square brackets hold non-standard residues; d marks the D form. Ends that are not written are not given here. Peptide text beside a SMILES is read from it. * marks the point of attachment. O(cholesteryl) = CC(C)CCC[C@@H](C)[C@H]1CC[C@H]2[C@@H]3CC=C4C[C@@H](O*)CC[C@]4(C)[C@H]3CC[C@]12C; Nicotinoyl(1-Me-1,4-dihydro) = CN1C=CCC(C(=O)*)=C1; pGlu = O=C1CC[C@@H](C(=O)O)N1
# How the values were obtained:
# Swiss Webster mice = test: Methohexital (barbiturate)-induced sleeping time in mice after i.v. injection; type: in vivo; settings: for methohexital induced sleeping time, individual animals / methohexital induced sleeping time, mean: methohexital 90 mg/kg i.p. 10 min later; for methohexital induced sleeping time, individual animals / methohexital induced sleeping time, mean / No. of Death / behavior / symptoms of animals after i.v. administration: mice
# Excerpt: Two representative chemical delivery systems (CDS's) of the invention for the TRH analog [Leu^2 ]-TRH, i.e., compound (8) of Scheme I/EXAMPLE 8, which has an alanine spacer, and compound (12) of Scheme II/Example 12, which has an alanine-alanine spacer, were studied for their effects on the barbiturate-induced sleeping time in mice. TRH is known to antagonize the reduction in cholinergic activity induced by barbiturates. Thus, the activational effects of the CDS's for TRH analogs on cholinergic neurons can be measured by quantitating the antagonism of pentobarbital-induced sleeping and barbiturate-induced reduction in cholinergic neuronal activity.
# Swiss Webster mice weighing 30±2 g were used. The compounds were dissolved in a vehicle consisting of DMSO, ethanol and 50% (w/w) 2-hydroxypropyl-β-cyclodextrin at a ratio of 1:2:1 (15 mg/ml). CDS's at a dose of 30 mg/kg were injected in the animals through the tail vein. Vehicle only and an equimolar dose of TRH and [Leu^2 ]-TRH, 10 mg/kg, were also administered to compare CNS activities. Ten minutes after i.v. injection of the compound, each animal received an intraperitoneal injection of sodium methohexital solution (45 mg/ml) at a dose of 90 mg/kg. The sleeping time was recorded as the time elapsed from the onset of loss of the […] until the reflex was regained. Each compound and the vehicle control were tested on 5-11 animals. The statistical analysis was performed using the Student's t test.
# Sprague-Dawley rats = test: Rat tail flick test (analgesia) after i.v. administration; type: in vivo; parameters: Area under the latency change vs. time curve, AUC0-240 min: unit not given here; settings: for Tail flick latency period / Maximum tail flick latency: cutoff 60 s; for Tail flick latency period / Maximum tail flick latency / Area under the latency change vs. time curve, AUC0-240 min: mean ± S.E.; for Number of Animals with maximum tail flick latency >60 seconds: cutoff latency 60 seconds
# Experimental: Sprague-Dawley rats weighing 200-250 g were used. Drugs were dissolved in the vehicle consisting of DMSO, ethanol and 50% (w/w) 2-hydroxypropyl-β-cyclodextrin at a ratio of 1:2:1. A-CDS at a dose of 5 or 10 mg/2 ml/kg was injected in the animals through the tail vein. Vehicle only, or an equimolar dose (5 mg/kg) of DADLE (equimolar to 10 mg/kg of A-CDS) was also administered to compare the pharmacological activities. Tail flick latency, an index of spinal cord mediated analgesia, was measured before (control) and at 5 minutes, 15 minutes, 30 minutes, 1 hour, 2 hours, 3 hours, 4 hours, 5 hours and 6 hours after drug administration. The instrument used was a model 33 tail flick analgesia meter (lite, Inc., Landing, N.J.) set with the beam dial at 90 and the sensitivity at 8. Time between presentation of a focused beam of light and the reflexive removal of the tail from the stimulus was defined as the tail flick latency period, and the tail flick latency difference between each time point and control was defined as the change in tail flick latency. In the absence of response, a cut-off period of 1 minute was used. Each drug at each dose was tested in ten animals. Results are presented in Tables 5-8 below and in FIGS. 3-5.
# Another representative chemical delivery system (AA-CDS) of the invention for the enkephalin analog DADLE, namely compound (69) of EXAMPLE 69, which has an alanine-alanine spacer, was studied in the same rat tail flick test procedure described above to determine its analgesic effects compared to DADLE itself. AA-CDS was tested at a dose of 10 mg/2 ml/kg, which is equimolar to 5 mg/kg of DADLE, and compared with vehicle and 5mg/kg of DADLE exactly as described above. Each dose was tested in ten animals.
# [1] = ACTH4-9 analog, behavioral effects; cited from earlier work
# [2] = Table 1 experiment, CDS 30 mg/kg i.v.
# [3] = Table 2 experiment, 10 mg/kg i.v.
# [4] = Table 1 experiment, 10 mg/kg i.v. (equimolar)
molecule,measurement,setting,value
"CC(C)CCC[C@@H](C)[C@H]1CC[C@H]2[C@@H]3CC=C4C[C@@H](OC(=O)CNC(=O)[C@@H]5CCCN5C(=O)[C@H](CC(C)C)NC(=O)[C@H](CCC(N)=O)NC(=O)[C@H](C)NC(=O)C5=CN(C)C=CC5)CC[C@]4(C)[C@H]3CC[C@]12C [Compound (8), 1.4-Dihydrotrigonellyl-Ala-Gln-Leu-Pro-Gly-Cholesteryl Ester] ({Nicotinoyl(1-Me-1,4-dihydro)}-AQLPG-{O(cholesteryl)})","methohexital induced sleeping time, individual animals",Swiss Webster mice; [2],18.23 min and 15.33 min and 11.90 min and 17.27 min and 46.07 min and 18.58 min and 15.73 min and 34.43 min and 16.15 min
same,"methohexital induced sleeping time, mean",Swiss Webster mice; [2],21.52 min
same,No. of Death,Swiss Webster mice; [2],2
"CC(C)CCC[C@@H](C)[C@H]1CC[C@H]2[C@@H]3CC=C4C[C@@H](OC(=O)CNC(=O)[C@@H]5CCCN5C(=O)[C@H](CC(C)C)NC(=O)[C@H](CCC(N)=O)NC(=O)[C@H](C)NC(=O)[C@H](C)NC(=O)C5=CN(C)C=CC5)CC[C@]4(C)[C@H]3CC[C@]12C [Compound (12), 1,4-Dihydrotrigonellyl-Ala-Ala-Gln-Leu-Pro-Gly-Cholesteryl Ester] ({Nicotinoyl(1-Me-1,4-dihydro)}-AAQLPG-{O(cholesteryl)})","methohexital induced sleeping time, individual animals",Swiss Webster mice; [2],12.08 min and 17.18 min and 27.05 min and 10.07 min and 16.40 min and 19.00 min and 8.13 min and 15.38 min and 17.93 min and 9.45 min
same,"methohexital induced sleeping time, mean",Swiss Webster mice; [2],15.27 min
same,No. of Death,Swiss Webster mice; [2],1
"CC(C)CCC[C@@H](C)[C@H]1CC[C@H]2[C@@H]3CC=C4C[C@@H](OC(=O)[C@@H](CC(C)C)NC(=O)[C@H](Cc5ccccc5)NC(=O)CNC(=O)[C@@H](C)NC(=O)[C@H](Cc5ccc(O)cc5)NC(=O)[C@H](C)NC(=O)[C@H](C)NC(=O)C5=CN(C)C=CC5)CC[C@]4(C)[C@H]3CC[C@]12C [Compound (69), 1,4Dihydrotrigonellyl-Ala-Ala-Tyr-D-Ala-Gly-Phe-D-Leu-Cholesteryl Ester] ({Nicotinoyl(1-Me-1,4-dihydro)}-AAY[dA]GF[dL]-{O(cholesteryl)})",Number of Animals with maximum tail flick latency 20-40 seconds,Sprague-Dawley rats; 10 mg/kg i.v.,2
same,Number of Animals with maximum tail flick latency 40-60 seconds,Sprague-Dawley rats; 10 mg/kg i.v.,2
same,Number of Animals with maximum tail flick latency <20 seconds,Sprague-Dawley rats; 10 mg/kg i.v.,3
same,Tail flick latency period,"Sprague-Dawley rats; 10 mg/kg i.v., 0 min (prior to drug administration)",8.47 ± 0.76 s
same,Tail flick latency period,"Sprague-Dawley rats; 10 mg/kg i.v., 5 min",29.78 ± 5.99 s
same,Tail flick latency period,"Sprague-Dawley rats; 10 mg/kg i.v., 15 min",20.24 ± 5.07 s
same,Tail flick latency period,"Sprague-Dawley rats; 10 mg/kg i.v., 30 min",20.41 ± 5.42 s
same,Tail flick latency period,"Sprague-Dawley rats; 10 mg/kg i.v., 60 min",13.77 ± 2.01 s
same,Tail flick latency period,"Sprague-Dawley rats; 10 mg/kg i.v., 120 min",11.81 ± 0.99 s
same,Tail flick latency period,"Sprague-Dawley rats; 10 mg/kg i.v., 180 min",15.94 ± 1.89 s
same,Tail flick latency period,"Sprague-Dawley rats; 10 mg/kg i.v., 240 min",13.99 ± 0.95 s
same,Tail flick latency period,"Sprague-Dawley rats; 10 mg/kg i.v., 300 min",18.43 ± 4.52 s
same,Maximum tail flick latency,Sprague-Dawley rats; 10 mg/kg i.v.,34.27 ± 6.20 s
same,Number of Animals with maximum tail flick latency >60 seconds,Sprague-Dawley rats; 10 mg/kg i.v.,2
same,"Area under the latency change vs. time curve, AUC0-240 min",Sprague-Dawley rats; 10 mg/kg i.v.,1639.67 ± 266.61
same,analgesic effect in tail flick test (in words),"Sprague-Dawley rats; i.v., compared to control",produced a significant analgesic effect
"CC(C)C[C@@H](NC(=O)[C@H](Cc1ccccc1)NC(=O)CNC(=O)[C@@H](C)NC(=O)[C@@H](N)Cc1ccc(O)cc1)C(=O)O [DADLE, H-Tyr-D-Ala-Gly-Phe-D-Leu-OH, reference compound]",Number of Animals with maximum tail flick latency 20-40 seconds,Sprague-Dawley rats; 5 mg/kg i.v.,3
same,Number of Animals with maximum tail flick latency 40-60 seconds,Sprague-Dawley rats; 5 mg/kg i.v.,0
same,Number of Animals with maximum tail flick latency <20 seconds,Sprague-Dawley rats; 5 mg/kg i.v.,7
same,Tail flick latency period,"Sprague-Dawley rats; 5 mg/kg i.v., 0 min (prior to drug administration)",7.97 ± 0.60 s
same,Tail flick latency period,"Sprague-Dawley rats; 5 mg/kg i.v., 5 min",12.15 ± 1.53 s
same,Tail flick latency period,"Sprague-Dawley rats; 5 mg/kg i.v., 15 min",12.67 ± 1.18 s
same,Tail flick latency period,"Sprague-Dawley rats; 5 mg/kg i.v., 30 min",12.66 ± 1.70 s
same,Tail flick latency period,"Sprague-Dawley rats; 5 mg/kg i.v., 60 min",15.75 ± 3.03 s
same,Tail flick latency period,"Sprague-Dawley rats; 5 mg/kg i.v., 120 min",10.11 ± 1.29 s
same,Tail flick latency period,"Sprague-Dawley rats; 5 mg/kg i.v., 180 min",10.94 ± 1.65 s
same,Tail flick latency period,"Sprague-Dawley rats; 5 mg/kg i.v., 240 min",10.64 ± 1.68 s
same,Tail flick latency period,"Sprague-Dawley rats; 5 mg/kg i.v., 300 min",10.02 ± 1.08 s
same,Maximum tail flick latency,Sprague-Dawley rats; 5 mg/kg i.v.,19.68 ± 2.42 s
same,Number of Animals with maximum tail flick latency >60 seconds,Sprague-Dawley rats; 5 mg/kg i.v.,0
same,"Area under the latency change vs. time curve, AUC0-240 min",Sprague-Dawley rats; 5 mg/kg i.v.,775.58 ± 273.20
"NC(=O)[C@@H]1CCCN1C(=O)[C@H](Cc1cnc[nH]1)NC(=O)[C@@H]1CCC(=O)N1 [TRH, PyroGlu-His-Pro-NH2]","methohexital induced sleeping time, individual animals",Swiss Webster mice; [3],20.47 min and 23.90 min and 15.00 min and 12.90 min and 11.17 min and 11.77 min and 40.82 min
same,"methohexital induced sleeping time, mean",Swiss Webster mice; [3],19.43 min
same,No. of Death,Swiss Webster mice; [3],2
same,behavior / symptoms of animals after i.v. administration,Swiss Webster mice,"tremor, tail-elevation and piloerection"
"CC(C)C[C@H](NC(=O)[C@@H]1CCC(=O)N1)C(=O)N1CCC[C@H]1C(N)=O [[Leu^2]-TRH, PyroGlu-Leu-Pro-NH2] ([pGlu]-Leu-Pro-NH2)","methohexital induced sleeping time, individual animals",Swiss Webster mice; [4],33.95 min and 37.37 min and 28.22 min and 15.03 min and 33.63 min and 20.90 min and 27.97 min and 36.80 min
same,"methohexital induced sleeping time, mean",Swiss Webster mice; [4],29.23 min
same,"methohexital induced sleeping time, individual animals",Swiss Webster mice; [3],15.18 min and 11.95 min and 12.47 min and 11.17 min and 8.53 min and 8.02 min
same,"methohexital induced sleeping time, mean",Swiss Webster mice; [3],11.22 min
same,effect on barbiturate-induced sleeping time (in words),"Swiss Webster mice; first experiment (Table 1), compared to control or [Leu2]-TRH",no significant difference between the control and [Leu^2 ]-TRH
same,behavior / symptoms of animals after i.v. administration,Swiss Webster mice,a few animals (1-2) showed the same symptoms as in the case of TRH
same,effect on sleeping time (in words),"Swiss Webster mice; second experiment (Table 2), compared to TRH or vehicle control",significantly reduced
"Org 2766: very active ACTH4-9 analog with oxidized methionine at 4, D-lysine at 8, phenylalanine at 9 (MEHF[dK]F; not fully specified (residue 1); printed as Met Glu His Phe Lys Phe)",potentiation,[1],1000 fold
